Active and inactive are the calls of the source.
Tests used:
[1] = blockers of CAL PDZ–TMR peptide complex – biochemical, fluorescence polarization, untagged CAL PDZ, cherry-pick, set 2, dose response (AID 602254); format: functional
Phospholipase D1 = Phospholipase D1 (Homo sapiens, UniProt Q13393); test: cellular phospholipase D1 inhibition IC50 – cell-based, dose response (AID 602151); format: functional;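 also: cellular PLD1 assay in Calu-1 cells stimulated with PMA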
Phospholipase D2 = Phospholipase D2 (Homo sapiens, UniProt O14939); test: cellular phospholipase D2 inhibition IC50 – cell-based, dose response (AID 602147); format: functional;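 also: cellular assay in HEK293 cells overexpressing GFP-tagged PLD2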
Phospholipase D2, sequence (O14939 whole entry): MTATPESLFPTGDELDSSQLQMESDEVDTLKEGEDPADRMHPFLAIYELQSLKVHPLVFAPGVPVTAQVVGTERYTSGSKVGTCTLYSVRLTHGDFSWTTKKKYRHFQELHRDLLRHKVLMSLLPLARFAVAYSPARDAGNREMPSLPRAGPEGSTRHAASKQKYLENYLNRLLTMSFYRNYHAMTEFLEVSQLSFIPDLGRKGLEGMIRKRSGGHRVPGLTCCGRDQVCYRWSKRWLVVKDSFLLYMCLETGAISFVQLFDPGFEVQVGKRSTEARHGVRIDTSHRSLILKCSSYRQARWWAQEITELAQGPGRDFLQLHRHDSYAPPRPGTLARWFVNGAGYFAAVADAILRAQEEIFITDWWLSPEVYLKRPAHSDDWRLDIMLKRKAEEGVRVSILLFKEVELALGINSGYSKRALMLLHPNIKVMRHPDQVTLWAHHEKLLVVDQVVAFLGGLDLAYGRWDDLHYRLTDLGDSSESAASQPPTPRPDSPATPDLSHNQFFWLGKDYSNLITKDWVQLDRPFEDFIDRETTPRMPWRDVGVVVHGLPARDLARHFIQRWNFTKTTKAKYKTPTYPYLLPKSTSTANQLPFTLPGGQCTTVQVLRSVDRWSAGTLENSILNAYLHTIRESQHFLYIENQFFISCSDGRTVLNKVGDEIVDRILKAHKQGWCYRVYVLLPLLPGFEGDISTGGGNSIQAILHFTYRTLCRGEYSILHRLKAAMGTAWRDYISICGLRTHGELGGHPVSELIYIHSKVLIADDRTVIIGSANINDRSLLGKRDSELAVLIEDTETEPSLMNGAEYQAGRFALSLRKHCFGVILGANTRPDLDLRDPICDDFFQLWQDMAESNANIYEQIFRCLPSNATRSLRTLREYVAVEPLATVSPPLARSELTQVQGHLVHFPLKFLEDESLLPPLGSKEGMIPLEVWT

[2] = cAMP pathway inhibition in counterscreen cell line – TR-FRET cAMP detection, counter-screen for MC4R biased antagonist project, dose response (AID 602305); format: functional, cell-based;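 also: U2OS cells stimulated with forskolin near its EC80 as the cAMP inducer; potency is for inhibition of forskolin-stimulated cAMP signaling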
Melanocortin receptor 4 = Melanocortin receptor 4 (Homo sapiens, UniProt P32245); test: inhibitors of MC4R cAMP signaling – cell-based, TR-FRET, biased antagonists, dose response (AID 602298); format: functional;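 also: antagonist potency against agonist-stimulated cAMP production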
Melanocortin receptor 4, sequence (P32245 whole entry): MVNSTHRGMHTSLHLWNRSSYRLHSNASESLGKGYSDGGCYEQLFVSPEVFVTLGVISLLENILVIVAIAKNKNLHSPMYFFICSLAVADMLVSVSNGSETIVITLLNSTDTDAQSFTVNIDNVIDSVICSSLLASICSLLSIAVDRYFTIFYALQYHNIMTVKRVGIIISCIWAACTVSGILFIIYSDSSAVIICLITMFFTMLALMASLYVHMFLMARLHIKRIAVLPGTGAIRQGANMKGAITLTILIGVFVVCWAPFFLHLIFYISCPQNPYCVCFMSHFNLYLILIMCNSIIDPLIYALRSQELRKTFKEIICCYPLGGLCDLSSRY

[3] = biological target: T1, Replicative DNA helicase DnaB (Mycobacterium tuberculosis, UniProt P9WMR3); test: DnaB intein splicing inhibitors, dose response, biochemical, cell-free fluorescence (AID 449749); format: functional
T1 sequence (P9WMR3 whole entry): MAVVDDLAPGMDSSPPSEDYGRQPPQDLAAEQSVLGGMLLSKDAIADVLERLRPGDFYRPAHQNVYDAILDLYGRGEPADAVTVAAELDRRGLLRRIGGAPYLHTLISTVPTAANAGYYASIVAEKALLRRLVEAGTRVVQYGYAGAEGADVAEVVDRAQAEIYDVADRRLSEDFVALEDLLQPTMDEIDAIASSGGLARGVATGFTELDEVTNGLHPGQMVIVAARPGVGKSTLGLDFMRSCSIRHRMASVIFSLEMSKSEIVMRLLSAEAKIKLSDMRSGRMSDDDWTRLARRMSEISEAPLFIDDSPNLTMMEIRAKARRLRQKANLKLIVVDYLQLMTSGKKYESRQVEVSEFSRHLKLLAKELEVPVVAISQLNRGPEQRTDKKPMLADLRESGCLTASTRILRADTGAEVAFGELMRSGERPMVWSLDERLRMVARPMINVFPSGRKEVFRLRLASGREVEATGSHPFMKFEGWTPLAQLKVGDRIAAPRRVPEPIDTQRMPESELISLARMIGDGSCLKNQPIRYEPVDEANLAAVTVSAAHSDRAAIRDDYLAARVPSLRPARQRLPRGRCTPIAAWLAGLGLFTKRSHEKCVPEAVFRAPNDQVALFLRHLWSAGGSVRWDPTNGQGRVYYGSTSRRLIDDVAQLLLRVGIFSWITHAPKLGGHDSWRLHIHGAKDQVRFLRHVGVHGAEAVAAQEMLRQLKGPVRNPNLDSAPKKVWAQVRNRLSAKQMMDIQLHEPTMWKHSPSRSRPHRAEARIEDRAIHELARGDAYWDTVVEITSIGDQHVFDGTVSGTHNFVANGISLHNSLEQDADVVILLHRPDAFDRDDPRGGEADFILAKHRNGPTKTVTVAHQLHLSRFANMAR

Protein RecA = biological target: T2, Protein RecA (Mycobacterium tuberculosis, UniProt P9WHJ3); test: Fluorescence Cell-Free Homogeneous Dose Retest to Identify Inhibitors of RecA-Intein Splicing Activity. [Related pubchem assays (depositor defined):AID2097, AID2223, AID489010, AID492950]; format: functional
T2 sequence (P9WHJ3 whole entry): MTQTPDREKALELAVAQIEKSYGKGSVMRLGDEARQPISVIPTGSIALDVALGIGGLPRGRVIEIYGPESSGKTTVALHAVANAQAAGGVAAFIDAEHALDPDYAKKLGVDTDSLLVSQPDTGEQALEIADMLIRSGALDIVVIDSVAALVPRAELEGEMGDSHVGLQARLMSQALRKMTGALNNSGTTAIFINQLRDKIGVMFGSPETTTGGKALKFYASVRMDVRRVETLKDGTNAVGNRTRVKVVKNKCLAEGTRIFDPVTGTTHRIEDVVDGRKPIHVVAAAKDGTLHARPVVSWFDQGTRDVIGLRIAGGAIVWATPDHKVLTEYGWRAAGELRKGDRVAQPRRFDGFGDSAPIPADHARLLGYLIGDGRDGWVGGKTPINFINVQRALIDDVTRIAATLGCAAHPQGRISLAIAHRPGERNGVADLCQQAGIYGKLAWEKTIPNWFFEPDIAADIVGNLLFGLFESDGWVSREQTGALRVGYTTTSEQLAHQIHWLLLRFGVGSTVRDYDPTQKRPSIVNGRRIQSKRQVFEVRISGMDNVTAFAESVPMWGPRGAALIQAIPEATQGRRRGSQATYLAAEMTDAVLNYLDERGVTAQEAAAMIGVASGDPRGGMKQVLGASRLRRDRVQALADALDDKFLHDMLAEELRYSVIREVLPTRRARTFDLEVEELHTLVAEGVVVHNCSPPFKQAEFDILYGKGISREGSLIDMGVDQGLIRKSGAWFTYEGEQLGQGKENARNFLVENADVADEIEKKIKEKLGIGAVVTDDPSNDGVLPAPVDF

[4] = biological target: Mitochondrial peptide methionine sulfoxide reductase (Bos taurus, UniProt P54149); test: Absorbance-based biochemical high throughput dose response assay for activators of Methionine sulfoxide reductase A (MsrA).; format: functional
Mitochondrial peptide methionine sulfoxide reductase, sequence (P54149 whole entry): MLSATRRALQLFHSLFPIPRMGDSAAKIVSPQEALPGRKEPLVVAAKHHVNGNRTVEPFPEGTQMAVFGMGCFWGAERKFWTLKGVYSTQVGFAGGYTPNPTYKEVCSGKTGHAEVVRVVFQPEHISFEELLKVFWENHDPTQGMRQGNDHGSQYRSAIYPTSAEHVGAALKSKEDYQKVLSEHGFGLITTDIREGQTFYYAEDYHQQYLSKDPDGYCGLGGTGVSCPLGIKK

[5] = biological target: T3, Microphthalmia-associated transcription factor (Homo sapiens, UniProt O75030); test: reducers of TRPM1 reporter luminescence, concentration series – cell-based, SK-MEL-5, cherry-picked, set 3, MITF inhibitor project, dose response (AID 493073); format: functional;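 also: SK-MEL-5 melanoma cells with luciferase driven by the MITF target TRPM1 promoter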
T3 sequence (O75030 whole entry): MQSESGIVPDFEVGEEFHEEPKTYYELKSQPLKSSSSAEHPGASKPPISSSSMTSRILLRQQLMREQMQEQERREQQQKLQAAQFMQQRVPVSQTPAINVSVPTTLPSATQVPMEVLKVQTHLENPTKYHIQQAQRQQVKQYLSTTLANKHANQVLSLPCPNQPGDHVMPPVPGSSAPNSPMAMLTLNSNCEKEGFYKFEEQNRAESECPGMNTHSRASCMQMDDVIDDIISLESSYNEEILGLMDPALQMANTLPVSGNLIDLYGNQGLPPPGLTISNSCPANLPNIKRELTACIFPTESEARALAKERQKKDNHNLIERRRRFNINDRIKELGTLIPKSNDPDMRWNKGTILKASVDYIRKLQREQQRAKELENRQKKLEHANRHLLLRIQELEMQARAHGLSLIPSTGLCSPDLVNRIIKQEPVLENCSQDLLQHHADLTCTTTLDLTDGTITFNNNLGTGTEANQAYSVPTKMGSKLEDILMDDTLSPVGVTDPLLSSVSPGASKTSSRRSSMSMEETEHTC

[6] = biological target: T4, Calpain-2 catalytic subunit (Sus scrofa, UniProt P43367); test: m-calpain protease blockers, concentration series – biochemical, fluorogenic peptide substrate, dose response (AID 1420); format: functional
T4 sequence (P43367 whole entry): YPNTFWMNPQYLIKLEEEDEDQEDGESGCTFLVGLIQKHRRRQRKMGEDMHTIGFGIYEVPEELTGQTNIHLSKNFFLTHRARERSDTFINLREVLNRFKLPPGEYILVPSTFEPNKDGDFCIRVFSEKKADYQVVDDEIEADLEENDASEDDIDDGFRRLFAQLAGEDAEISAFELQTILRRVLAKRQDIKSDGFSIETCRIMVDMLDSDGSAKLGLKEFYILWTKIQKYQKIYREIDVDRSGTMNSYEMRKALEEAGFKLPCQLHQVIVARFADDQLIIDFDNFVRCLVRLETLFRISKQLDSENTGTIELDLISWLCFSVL

[7] = NIH-3T3 fibroblast cytotoxicity, dose response, cytotoxicity control, cell-based, fluorescence, Alamar Blue, secondary assay (AID 2327); format: functional;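 also: NIH-3T3 mouse fibroblasts cultured with fluconazole at 8 µg/mL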
[8] = biological target: ATP-dependent molecular chaperone HSP82 (Candida albicans (strain WO-1) (Yeast), UniProt C4YTQ8); test: steroid-induced GRE reporter decrease in yeast – S. cerevisiae, luminescence, Hsp90 inhibitor project, dose response (AID 2400); format: functional, cell-based;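 also: beta-galactosidase luminescence from glucocorticoid response element reporter as proxy for Hsp90 function; inhibitor potency where signal loss means Hsp90 inhibition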
ATP-dependent molecular chaperone HSP82, sequence (C4YTQ8 whole entry): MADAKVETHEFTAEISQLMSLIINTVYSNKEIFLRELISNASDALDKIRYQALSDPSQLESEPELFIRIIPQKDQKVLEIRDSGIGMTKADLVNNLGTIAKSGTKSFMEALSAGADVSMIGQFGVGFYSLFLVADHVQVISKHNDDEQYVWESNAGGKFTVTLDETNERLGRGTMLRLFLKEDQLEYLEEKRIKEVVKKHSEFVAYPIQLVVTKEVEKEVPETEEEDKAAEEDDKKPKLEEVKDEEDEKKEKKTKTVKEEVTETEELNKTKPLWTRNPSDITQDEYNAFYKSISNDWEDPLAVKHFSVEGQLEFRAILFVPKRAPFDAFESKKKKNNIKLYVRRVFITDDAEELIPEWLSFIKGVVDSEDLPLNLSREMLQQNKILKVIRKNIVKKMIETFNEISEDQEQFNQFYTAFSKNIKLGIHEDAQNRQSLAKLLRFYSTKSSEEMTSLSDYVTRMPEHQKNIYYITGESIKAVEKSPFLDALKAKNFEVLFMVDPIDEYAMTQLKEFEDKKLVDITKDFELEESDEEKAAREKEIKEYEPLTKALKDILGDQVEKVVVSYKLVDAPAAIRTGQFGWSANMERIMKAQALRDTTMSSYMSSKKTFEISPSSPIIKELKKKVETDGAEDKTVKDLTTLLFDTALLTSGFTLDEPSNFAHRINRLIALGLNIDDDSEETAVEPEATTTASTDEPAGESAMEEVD

[9] = biological target: Serine/threonine-protein phosphatase (Candida dubliniensis (strain CD36 / CBS 7987 / NCPF 3949 / NRRLY-17841) (Yeast), UniProt B9W6M3); test: blockers of CaCl2-induced CDRE-lacZ signaling – S. cerevisiae, luminescence, secondary, dose response (AID 2388); format: functional, cell-based;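 also: yeast reporter cells carrying a calcineurin-responsive lacZ construct stimulated with calcium chloride; luminescent beta-galactosidase reporter signal in whole cells rather than isolated phosphatase activity; potency for inhibition where a drop in reporter signal means calcineurin blockade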
Serine/threonine-protein phosphatase, sequence (B9W6M3 whole entry): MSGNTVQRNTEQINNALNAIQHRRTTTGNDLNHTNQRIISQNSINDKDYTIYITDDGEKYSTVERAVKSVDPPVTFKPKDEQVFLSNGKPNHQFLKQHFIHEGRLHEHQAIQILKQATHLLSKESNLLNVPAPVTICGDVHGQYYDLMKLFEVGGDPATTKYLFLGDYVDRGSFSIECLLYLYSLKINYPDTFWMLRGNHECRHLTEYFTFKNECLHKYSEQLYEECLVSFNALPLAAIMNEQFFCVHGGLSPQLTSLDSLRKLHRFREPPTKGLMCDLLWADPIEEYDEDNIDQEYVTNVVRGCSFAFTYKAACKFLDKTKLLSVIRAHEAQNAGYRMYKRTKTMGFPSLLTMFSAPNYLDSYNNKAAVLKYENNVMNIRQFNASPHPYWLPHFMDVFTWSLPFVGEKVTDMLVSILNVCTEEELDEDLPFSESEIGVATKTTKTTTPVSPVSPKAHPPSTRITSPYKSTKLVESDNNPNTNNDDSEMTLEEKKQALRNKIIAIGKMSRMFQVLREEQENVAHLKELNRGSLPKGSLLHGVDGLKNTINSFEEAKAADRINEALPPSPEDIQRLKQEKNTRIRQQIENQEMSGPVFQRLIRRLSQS

[10] = fluconazole-exposed Candida albicans growth modulators – fluorescence, retest, confirmation (AID 2467); format: functional, cell-based
[11] = HEK-293T cell viability reduction – luminescence, B-cell screen hits, cytotoxicity control for BCR NF-kB inhibitor project, dose response (AID 489021); format: functional, cell-based;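 also: HEK-293T cells carrying an NF-kB luciferase reporter; cells exposed to compound for about 14 hours before viability readout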
[12] = biological target: Latent membrane protein 1 (Human herpesvirus 4 (strain B95-8), UniProt P03230); test: LMP1 TES1 pathway selectivity over dsRED control – imaging, HEK293T, dual-color eGFP/dsRED, cherry-picks, selectivity assay for LMP1 NF-kB inhibitor project, dose response (AID 588398); format: functional, cell-based
Latent membrane protein 1, sequence (P03230 whole entry): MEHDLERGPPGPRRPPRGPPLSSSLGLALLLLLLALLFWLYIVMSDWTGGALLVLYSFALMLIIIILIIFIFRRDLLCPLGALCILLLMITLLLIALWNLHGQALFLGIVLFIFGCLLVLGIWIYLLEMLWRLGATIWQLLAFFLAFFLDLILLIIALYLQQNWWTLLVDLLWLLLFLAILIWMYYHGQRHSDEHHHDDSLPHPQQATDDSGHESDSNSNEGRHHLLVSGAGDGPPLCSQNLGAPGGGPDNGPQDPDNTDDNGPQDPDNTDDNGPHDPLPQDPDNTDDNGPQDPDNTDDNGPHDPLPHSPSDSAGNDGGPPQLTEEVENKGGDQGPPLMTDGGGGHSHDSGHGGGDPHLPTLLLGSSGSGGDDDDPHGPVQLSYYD

HEK293 = test: EBV LMP1 TES2 canonical NF-kB signalling blockers – cell-based, HEK293, luciferase, cherry-pick, dose response (AID 588343); format: functional; conditions: Homo sapiens

Phospholipase D1, sequence (Q13393 whole entry): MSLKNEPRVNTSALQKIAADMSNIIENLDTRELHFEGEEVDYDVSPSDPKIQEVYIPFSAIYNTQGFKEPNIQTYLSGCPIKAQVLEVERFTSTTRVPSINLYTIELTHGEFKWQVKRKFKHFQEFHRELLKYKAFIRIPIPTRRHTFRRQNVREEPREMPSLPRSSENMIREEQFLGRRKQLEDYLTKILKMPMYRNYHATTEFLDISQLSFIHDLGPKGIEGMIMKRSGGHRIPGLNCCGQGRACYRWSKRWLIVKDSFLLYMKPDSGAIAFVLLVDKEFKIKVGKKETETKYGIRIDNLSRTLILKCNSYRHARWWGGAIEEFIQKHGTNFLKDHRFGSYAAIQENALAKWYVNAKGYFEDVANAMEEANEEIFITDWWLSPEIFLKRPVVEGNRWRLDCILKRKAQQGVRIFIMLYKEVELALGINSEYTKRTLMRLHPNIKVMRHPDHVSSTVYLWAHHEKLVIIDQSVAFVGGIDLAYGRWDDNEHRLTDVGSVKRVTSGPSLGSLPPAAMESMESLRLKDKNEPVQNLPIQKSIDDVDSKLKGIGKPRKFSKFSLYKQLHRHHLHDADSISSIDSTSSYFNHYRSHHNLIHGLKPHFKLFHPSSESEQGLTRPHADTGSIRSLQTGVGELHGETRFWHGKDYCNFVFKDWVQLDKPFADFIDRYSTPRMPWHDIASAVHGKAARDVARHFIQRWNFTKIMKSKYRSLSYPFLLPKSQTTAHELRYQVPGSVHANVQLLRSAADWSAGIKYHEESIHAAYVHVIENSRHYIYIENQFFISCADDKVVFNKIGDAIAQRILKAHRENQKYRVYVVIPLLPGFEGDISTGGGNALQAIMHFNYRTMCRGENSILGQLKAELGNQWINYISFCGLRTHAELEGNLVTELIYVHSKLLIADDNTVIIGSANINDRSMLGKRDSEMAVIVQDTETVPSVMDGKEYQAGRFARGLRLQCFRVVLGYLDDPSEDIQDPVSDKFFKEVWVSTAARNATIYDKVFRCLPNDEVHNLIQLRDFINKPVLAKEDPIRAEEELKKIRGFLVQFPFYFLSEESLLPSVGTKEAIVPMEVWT

COCCSc1nnc(NC(=O)Cc2ccc(OC)cc2)s1
AC50 [1]: 101 µM (active)

Cc1ccc(C(=O)N[C@@H](C)CN2CCC(n3c(=O)[nH]c4ccc(F)cc43)CC2)cc1
IC50 (Phospholipase D1): 0.008 µM (active) | IC50 (Phospholipase D2): 0.18 µM (active)

CCOc1ccc(C(=O)CCC(=O)NCC(=O)OCc2ccccc2)cc1OCC
IC50 [2]: > 64.6 µM (inactive) | IC50 (Melanocortin receptor 4): > 64.6 µM (inactive)

CC(C)[C@@H](CN1CCC(n2c(=O)[nH]c3ccccc32)CC1)NC(=O)c1ccc2ccccc2c1
IC50 (Phospholipase D1): 5.6 µM (active) | IC50 (Phospholipase D2): 20 µM (active)

CCNC1=C(Cl)C(=O)c2ccccc2C1=O
AC50 [3]: 6.98 µM (active) | EC50 (Protein RecA): 20 µM (active) | EC50 [4]: > 104 µM (inactive) | AC50 [5]: 3.84 µM (active) | IC50 [6]: > 50 µM (not active)

COc1ccc(N(CC(=O)Nc2ccccc2C(N)=O)S(=O)(=O)c2ccc(C)c([N+](=O)[O-])c2)cc1
EC50 [7]: > 150 µM (inactive) | EC50 [8]: > 160 µM (inactive) | EC50 [9]: > 180 µM (inactive) | EC50 [10]: 0.095 µM (active)

COc1cc(-c2[nH]c(C(=O)NCC3CCCO3)cc3c4ccccc4nc2-3)cc(OC)c1OC (centres undefined)
IC50 [11]: 51.8 µM (inactive) | AC50 [12]: 44.3 µM (active) | AC50 (HEK293): 37.8 µM (active)

Reference: ChEMBL document CHEMBL1201862, “PubChem BioAssay data set” (2004)
